Source: US9463188B2, “Osteopontin production inhibitor containing dictyopyrone derivative or dihydrodictyopyrone derivative as active ingredient” (TOHOKU UNIVERSITY, priority 2013, dated 2016)

Assays:
[1] = tested on: human OPN promoter (pOPN1-luc) in A549/OPNluc cells; test: Luciferase assay: luciferase expression under control of OPN promoter; assay type: cell-based
Source text: A reporter vector pOPN1-luc obtained by inserting a human OPN promoter sequence (−765 to 23) into the multiple cloning site of pGL-3 basic vector (Promega) expresses luciferase when transfected into animal cells. This pOPN1-luc was transfected into a human non-small cell lung cancer-derived cell line A549 together with pPUR (Clontech) that expresses a puromycin resistance gene (puromycin-N-acetyl-transferase gene), and cells that could grow in a puromycin-supplemented medium and expressed luciferase were selected. The selected cells were named A549/OPNluc cells and used for observation of luciferase expression inhibitory effect under control of OPN promoter, as described later.
A test compound was added to a culture liquid containing A549/OPNluc cells to observe its influence on the amount of luciferase expressed in the cells. Here, it can be considered that when the test compound has cytotoxity or cell growth-suppressing effect, the total expression level of luciferase is reduced due to a reduction in the number of living cells that depends on the concentration of the test compound, and therefore the luciferase expression inhibitory effect of the test compound under control of OPN promoter cannot be properly evaluated. For this reason, WST assay for quantification of cell proliferation ability or cell viability by colorimetric measurement was first performed to determine IC50 (concentration for 50% inhibition of cell growth) of the test compound for cell growth. Then, luciferase activity measurement was performed to determine EC50 (concentration for 50% inhibition of luciferase expression) of the test compound for luciferase expression under control of OPN promoter.
The same steps as in the above-described WST assay were performed in which only DMSO (control) or the diluted test compound (sample) solution was added in an amount of 0.5 μL to each well containing the cell suspension to achieve 200-fold dilution, and the solution in each well was mixed with a vortex mixer, and the 96-well plate was incubated in a CO2 incubator (at 37° C. and 5% CO2) for 48±4 hours.
A luciferase reagent was prepared by dissolving Luciferase Assay Substrate (hereinafter, referred to as “LAS”) supplied in Luciferase Assay Systems (Promega: Cat# E1500) with Luciferase Assay Buffer (LAB). 5× Cell Culture Lysis Reagent (hereinafter, referred to as “CCLR”) was diluted with water 5-fold to prepare 1×CCLR.
After the incubation for 48±4 hours, the medium in each well was completely removed, and 50 μL of 1×CCLR was dispensed into each well. The 96-well plate was allowed to stand at room temperature for 30 minutes, and then 1×CCLR in each well was used as an assay sample. The luciferase reagent of 100 μL was placed in a tube for chemiluminescence measurement, and 20 μL of the assay sample was added to the tube and mixed with the luciferase reagent to measure chemiluminescence (Relative Luminescence Intensity: RLU) using Tuner Design Luminometer 20/20 (Promega).
The RLU values of the control wells and the RLU values of the sample wells at each concentration were input into an Excel file, and the percentages of RLU values of the sample wells at each concentration with respect to the average of RLU values of the control wells were determined. From these values, a fitted curve was determined by the method of least squares to calculate EC50.

[2] = tested on: OPN production by human non-small cell lung cancer-derived cell line A549; test: OPN production by A549 cells (Human Osteopontin Immunoassay, per mg protein); assay type: cell-based; details: 2-day culture
Procedure: The confirmation test was performed in the following manner. The compound 3 wad added to a culture liquid containing cells of a human non-small cell lung cancer-derived cell line A549 or a human liver cancer-derived cell line HepG2, and the amount of OPN in culture supernatant after 2-day culture was measured using Human Osteopontin Immunoassay kit (R&D systems) and compared with the OPN amount of a compound 3-free group (control group).
The compound 3 has also cell growth inhibitory effect. Therefore, in order to properly evaluate the OPN production-suppressing effect of the compound 3, 1×CCLR used in luciferase assay was added to cells remaining in each well after removal of culture supernatant to prepare a cell lysate, and the amount of protein in the cell lysate was measured using BCA Protein Assay Kit (Thermo Scientific). The influence of addition of the compound 3 on the amount of OPN production was evaluated by comparison of the amount of OPN per milligram of protein.
First, A549 cells or HepG2 cells were suspended in DMEM medium containing 10% FCS and 1% P/S at 4×10^4 cells/mL to obtain a cell suspension, and 500 μL of the cell suspension was dispensed into each well of a 24-well plate. In order to perform the test in triplicate, 3 wells were prepared for a control group and 3 wells were prepared for each test compound-treated group at each concentration. […]

EC50 value relative to respective IC50 value ([1]; EC50 luciferase assay vs IC50 WST assay): ½ | EC50 ([1]; Homo sapiens, 48±4 hours, read-out: EC50 (concentration for 50% inhibition of luciferase expression under control of OPN promoter)): 15.9 µM
Compound: CCCCCCCCCCCC(=O)[C@H]1C(=O)O[C@@H](C)C[C@@H]1C [Chemical formula 3]
suppression of OPN production vs control group ([2]; 30 μmol/L, significance level less than 5%): significantly suppressed | suppression of OPN production vs control group ([2]; 60 μmol/L, significance level less than 1%): significantly suppressed
